Test results as given in patent publication US7759350B2, “Pyrimidine carboxamides” (Orchid Research Laboratories Ltd., priority 2005, dated 2010).

How the values were obtained:
[1] = target: T1, purified recombinant COX-2 enzyme (Homo sapiens, UniProt P35354); test: COX-2 enzyme based assay; format: biochemical; details: Conc. 10 μM
T1 sequence (P35354 18-604): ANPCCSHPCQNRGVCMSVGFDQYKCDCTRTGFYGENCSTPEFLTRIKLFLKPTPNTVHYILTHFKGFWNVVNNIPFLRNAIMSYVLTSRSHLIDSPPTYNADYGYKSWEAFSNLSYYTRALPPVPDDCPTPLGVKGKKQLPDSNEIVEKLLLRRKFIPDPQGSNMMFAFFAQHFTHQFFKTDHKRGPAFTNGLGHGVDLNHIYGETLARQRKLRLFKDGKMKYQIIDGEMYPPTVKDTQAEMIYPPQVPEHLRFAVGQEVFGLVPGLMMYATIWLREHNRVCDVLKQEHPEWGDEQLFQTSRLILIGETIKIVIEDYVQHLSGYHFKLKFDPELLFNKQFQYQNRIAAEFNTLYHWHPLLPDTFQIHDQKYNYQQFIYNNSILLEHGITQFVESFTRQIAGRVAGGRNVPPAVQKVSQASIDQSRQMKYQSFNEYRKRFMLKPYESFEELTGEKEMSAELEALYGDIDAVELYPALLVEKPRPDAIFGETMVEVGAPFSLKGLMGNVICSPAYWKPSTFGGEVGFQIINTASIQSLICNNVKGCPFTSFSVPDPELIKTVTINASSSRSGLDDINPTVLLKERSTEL
Procedure: COX-1 and COX-2 Enzyme Based Assay
COX-2 enzyme based assays were carried out to check the inhibitory potential of test compounds on the production of prostaglandin by purified recombinant COX-1/COX-2 enzyme (Proc. Nat. Acad. Sci. USA, 88, 2692-2696, 1991; Clin. Immunoassay 15, 116-120, 1992) In this assay, the potential of the test compound to inhibit the production of prostaglandin either by COX-1 or COX-2 from arachidonic acid (substrate) was measured. This was an enzyme based in-vitro assay to evaluate selective COX inhibition with good reproducibility.
Arachidonic acid was converted to PGH2 (Intermediate product) by COX1/COX-2 in presence or absence of the test compound. The reaction was carried out at 37° C. and after 2 minutes it was stopped by adding 1M HCl. Intermediate products PGH2 was converted to a stable Prostanoid product PGF2α by SnCl2 reduction. The amount of PGF2α produced in the reaction was inversely proportional to the COX inhibitory potential of the test compound. The prostanoid product was quantified via enzyme immunoassay (EIA) using a broadly specific antibody that binds to all the major forms of Prostaglandin, using Cayman ELISA kit as per the procedure outlined by the manufacturer Cayman Chemicals, Ann Arbor, USA).

[2] = system: IL-6; test: In vitro measurement of IL-6 in human PBMC; format: cell-based; details: Conc. 0.1 μM, LPS
Outline: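 Human PBMC (0.5 million/well) preincubated with compound 15 min at 37° C., then stimulated with E. coli LPS (1 μg/ml) for 18 h at 37° C. Cytokine in culture medium quantified by ELISA.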

[3] = system: Carrageenan induced paw edema in rat; test: Carrageenan induced paw edema test in rat; format: in vivo; details: 5 mg/kg oral; male wistar rats; 3 hours after carrageenan
Procedure: Carrageenan Induced Paw Edema Test in Rat
The carrageenan paw edema test was performed as described by Winter et al (Proc. Soc. Exp. Biol. Med, 111, 544, 1962). Male wistar rats were selected with body weights equivalent within each group. The rats were fasted for eighteen hours with free access to water. The rats were dosed orally with the test compound suspended in vehicle containing 0.25% carboxymethylcellulose and 0.5% Tween 80. The control rats were administered with vehicle alone. After an hour, the rats were injected with 0.1 ml of 1% Carrageenan solution in 0.9% saline into the sub-plantar surface of the right hind paw. Paw volume was measured using digital plethysmograph before and after 3 hours of carrageenan injection. The average of foot swelling in drug treated animals was compared with that of control animals. Anti-inflammatory activity was expressed as the percentage inhibition of edema compared with control group [Arzneim-Forsch/Drug Res., 43 (I), 1,44-50,1993; Otterness and Bliven, Laboratory Models for Testing NSAIDs, In Non-Steroidal Anti-Inflammatory Drugs, (J. Lombardino, ed. 1985)].

[4] = system: NCI-H460; test: Anti-cancer screen (MTT), NCI-H460; format: cell-based; details: Homo sapiens, NCI-H460; 48 hours, MTT
[5] = system: DU145; test: Anti-cancer screen (MTT), DU145; format: cell-based; details: Homo sapiens, DU-145, 48 hours

inhibition at 10 µM [1]: 11.4%
GI50 [4]: 5.15 µM
GI50 [5]: 2750 nM
Structure (SMILES): CNc1nc(-c2ccncc2)nc(SC)c1C(=O)Nc1ccc(OC)cc1 [Example 14, N-(4-Methoxyphenyl)-4-(methylamino)-6-(methylthio)-2-pyridin-4-ylpyrimidine-5-carboxamide]
inhibition at 0.1 µM [2]: 28.2%
Inhibition of edema (%) at 5 mg/kg [3]: 31.02%
